In US11654193B2, “Cancer treatment combinations” (The Regents of the University of California, priority 2016, dated 2023):
“Also recorded” adds a separate entry of the source. Like-named read-outs stand apart in the source and are kept apart here.

Legend:
[1] = tested on: ROR-1×TCL1 leukemia cells; assay: ROR-1×TCL1 leukemia adoptive transfer in immunocompetent ROR-1-Tg mice; format: in vivo; settings: cirmtuzumab 10 mg/kg weekly i.v. and/or ibrutinib 5 mg/kg daily via gavage, after 28 days
From the text: (§1) ROR-1×TCL1 Leukemia Adoptive Transfer Study.
After 28 days, the animals were sacrificed and the spleen of each animal was examined.

[2] = tested on: ROR-1×TCL1 leukemia cells; assay: ROR-1×TCL1 leukemia adoptive transfer in immunodeficient Rag2-/-γc-/- mice; format: in vivo; settings: day 25; for numbers of splenic ROR-1×TCL1 leukemia cells, dose dependence: ibrutinib daily 15, 5, 1.67 mg/kg or single dose UC-961/cirmtuzumab 10, 3, 1 mg/kg
Procedure: ROR-1×TCL1 leukemia adoptive transfer study. […] ROR-1×TCL1 leukemia B cells (CD5B220^lowROR-1^+) were isolated from the spleen, enriched via density gradient centrifugation, suspended in sterile PBS, injected i.v. into Rag2^−/−γc^−/− recipient mice at 2×10^4 cells per animal. Samples used for transplantation were verified by flow cytometry to be >95% leukemia B cells. For dose dependent therapy of UC-961, recipient mice received either no treatment, or one dose i.v. injections of 10 mg/kg, 3 mg/kg and 1 mg/kg of UC-961 on day 1. […] All mice were sacrificed on day 25 and single-cell suspensions of splenocytes were purged of red blood cells by hypotonic lysis in ammonium-chloride-potassium (ACK) lysis solution, washed, suspended in 2% (wt/vol) BSA (Sigma) in PBS (pH=7.4) and stained for surface expression of CD3 (17A2), CD5 (53-7.3), B220 (RA3-6B2), and ROR-1 (4A5) using optimized concentrations of fluorochrome-conjugated mAbs. Cells were examined by four-color, multiparameter flow cytometry using a dual-laser FACSCalibur (BD) and the data were analyzed using FlowJo software (TreeStar). The total number of leukemia cells per spleen was calculated by determining the percent of CD5B220^lowROR-1^+ cells of total lymphocytes by flow cytometry and multiplying this number by the total spleen cell count.
as §1

[3] = tested on: cell lines or chronic lymphocytic leukemia samples; settings: cited from earlier work
[4] = tested on: natural killer cells, macrophages or neutrophils; settings: cited from earlier work; for cell-mediated mechanisms induced by anti-CD20 antibodies rituximab, ofatumumab or obinutuzumab: purified systems or whole blood assays
[5] = single dose UC-961/cirmtuzumab 1 mg/kg and/or ibrutinib 5 mg/kg daily

C=CC(=O)N1CCC[C@@H](n2nc(-c3ccc(Oc4ccccc4)cc3)c3c(N)ncnc32)C1 [ibrutinib, 1-[(3R)-3-[4-Amino-3-(4-phenoxyphenyl)-1H-pyrazolo[3,4-d]pyrimidin-1-yl]piperidin-1-yl]prop-2-en-1-one]
mean proportion and leukemia cell number in the spleen [1]: significantly lower
spleen size [1]: significantly smaller spleens
numbers of splenic ROR-1×TCL1 leukemia cells, dose dependence [2]: Dose-dependent inhibitory effect
numbers of splenic ROR-1×TCL1 leukemia cells, dose dependence ([2]; listed as Ibrutinib): inhibited the expansion of ROR-1×TCL1 leukemia cells in a dose-dependent manner; also recorded: reduced the numbers of splenic leukemia cells in a dose-dependent manner
percentage and total number of ROR-1×TCL1 leukemia cells per spleen [2, 5]: significantly lower
spleen size [2, 5]: significantly smaller spleens
complement activation or complement-mediated lysis ([3]; pre-treatment with ibrutinib): did not inhibit complement activation or complement-mediated lysis
direct cell death mediated by anti-CD20 antibodies ([3]; pretreatment with ibrutinib for 1 hour): did not increase direct cell death
cell-mediated mechanisms induced by anti-CD20 antibodies rituximab, ofatumumab or obinutuzumab [4]: strongly inhibited all cell-mediated mechanisms
cell-mediated mechanisms induced by anti-CD20 antibodies rituximab, ofatumumab or obinutuzumab ([4]; listed as Ibrutinib): interfered with the activity of the CD20 antibodies

CC[C@H](Nc1ncnc2[nH]cnc12)c1nc2cccc(F)c2c(=O)n1-c1ccccc1 [idelalisib, 5-Fluoro-3-phenyl-2-[(15)-1-(7H-purin-6-ylamino)propyl]-4(3H)-quinazolinone]
effect on immune cell-mediated mechanisms induced by anti-CD20 antibodies ([4]; 10 μM, compared with ibrutinib at the same concentration): weaker than those observed with ibrutinib
cell-mediated mechanisms induced by anti-CD20 antibodies rituximab, ofatumumab or obinutuzumab [4]: similarly inhibits the immune cell-mediated mechanisms
